{"source": "patent US7972793B2", "about": "“Methods and compositions for the treatment of psychotic disorders through the identification of the SULT4A1-1 haplotype” (Suregene, LLC, priority 2009, dated 2011)", "key": {"[1]": {"test_system": "CATIE Phase I non-responders", "conditions": "CATIE Phase II, LOCF; for Responders (number): decrease PANSS ≧ 20%"}, "CATIE patients": {"test_system": "CATIE patients", "assay": "Kaplan-Meier survival (no hospitalization event) analysis, SULT4A1-1 negative vs positive", "type": "in vivo, human", "conditions": "FIG. 8", "procedure": "A Kaplan-Meier survival analysis was performed to determine whether there was a difference between the survival (hospitalization) rates for the SULT4A1-1 negative and SULT4A1-1 positive patient populations treated with each of the atypical antipsychotics. Survival plots model the fraction of the population that survived (i.e., no hospitalization event) as a function of time."}, "[2]": {"test_system": "patients, unsegmented populations", "conditions": "Meta-analysis, Leucht et al. (2009); cited from earlier work"}, "[3]": {"test_system": "CATIE African American schizophrenia patients", "assay": "CATIE drug response: change in total PANSS (LOCF), segmented by SULT4A1-1 status, African Americans", "type": "in vivo, human", "procedure": "The design of the CATIE study has been described in detail by others (Lieberman et al., 2005; Stroup et al., 2003). […] A total of 738 subjects consented to provide DNA for genetic study. […] Retrospective genetic analyses, judged to be exempt from human studies requirements by an IRB, were conducted in the current study. All tested patients were studied using well established clinical endpoints comparing baseline, intermediate, and last observation carried forward (LOCF) for the PANSS scores using CATIE data. […] To remove time on drug as a variable for the CATIE trial, analysis was limited to only those patients who were randomized to a different drug following the initial washout period (drug switchers)."}, "CATIE Caucasian subjects": {"test_system": "CATIE Caucasian subjects", "assay": "Rate of hospitalization due to exacerbation of psychosis in CATIE by SULT4A1-1 status", "type": "in vivo, human", "conditions": "CATIE Phases 1, 2 and/or 3", "from_the_text": "For this analysis, the inventors assigned a dichotomous value (positive or negative) for hospitalization status to subjects in each phase of the trial based on only the first hospitalization event for a given patient in that phase."}, "[4]": {"test_system": "patients, populations not segmented by SULT4A1-1 status", "conditions": "meta-analysis, Leucht et al. (2009); negative = greater reduction in PANSS; cited from earlier work"}, "[5]": {"test_system": "patients, unsegmented populations", "conditions": "first generation antipsychotics; Davis et al. (2003); cited from earlier work"}, "[6]": {"test_system": "CATIE Caucasian schizophrenia patients", "assay": "Time to discontinuation for all causes in the CATIE study", "type": "in vivo, human", "from_the_text": "The primary endpoint for the CATIE study was time to discontinuation for all causes (Lieberman et al., 2005). Thus the inventors evaluated the effect of SULT41-1 status on this important parameter."}, "[7]": {"test_system": "CATIE Caucasian schizophrenia patients", "assay": "CATIE Phase 1 drug response: change in total PANSS (LOCF), drug switchers, segmented by SULT4A1-1 status", "type": "in vivo, human", "conditions": "for ≦−20% (number of individuals with this percent change in total PANSS; responders) / ≧−20% (number of individuals with this percent change in total PANSS; non-responders): CATIE Caucasians, LOCF", "from_the_text": "There are several different metrics for quantifying response in clinical trials of antipsychotic medications. The most commonly used psychometric instrument is the Positive and Negative Syndrome Scale (PANSS), a 30-item semi-quantitative instrument scored by clinical professionals (Kay et al., 1987). The greater the decrease in PANSS score, the better the clinical response. The most direct measure of clinical response is absolute change in PANSS score. In addition to absolute change, the improvement is often reported as a percentage change from baseline PANSS score.\nA decrease of at least 20% in total PANSS is one commonly used threshold for response (Leucht et al., 2009).\nThe design of the CATIE study has been described in detail by others (Lieberman et al., 2005; Stroup et al., 2003). […] A total of 738 subjects consented to provide DNA for genetic study. […] Retrospective genetic analyses, judged to be exempt from human studies requirements by an IRB, were conducted in the current study.\nAll tested patients were studied using well established clinical endpoints comparing baseline, intermediate, and last observation carried forward (LOCF) for the PANSS scores using CATIE data. LOCF analysis is a commonly used clinical endpoint for clinical trials for neuropsychiatric drugs, with changes in PANSS scores of between negative 20% and negative 30% used as typical endpoints to indicate clinically significant response (Leucht et al., 2009). To remove time on drug as a variable for the CATIE trial, analysis was limited to only those patients who were randomized to a different drug following the initial washout period (drug switchers).\nAs mentioned previously, the mean change in absolute or percent PANSS provides an important measure of efficacy in patients undergoing antipsychotic treatments. Indeed, many pivotal trials in the psychosis field used absolute and/or percentage change in PANSS Score as the primary endpoint (Leucht et al., 2009). […] Therefore, in addition to examining a categorical definition of clinically significant response, the inventors determined the impact of segmentation by SULT4A1-1 status on the quantitative measure of clinical improvement—delta PANSS."}, "[8]": {"conditions": "Table 16, 20% decrease in PANSS threshold, SULT4A1-1 positive group (sign not given)"}}, "note": "Where two headings read alike, the source gives them in different places. Marks after values point to notes of the source that are not given here.", "data": [{"smiles": "Cc1nc2n(c(=O)c1CCN1CCC(c3noc4cc(F)ccc34)CC1)CCCC2", "note": "[Risperidone]", "values": [{"measurement": "Nonresponders (number)", "setting": "[1]; SULT4A1-1 Negative", "value": 8}, {"measurement": "Responders (number)", "setting": "[1]; SULT4A1-1 Negative", "value": 4}, {"measurement": "% Responders", "setting": "[1]; SULT4A1-1 Positive", "value": 0, "unit": "%"}, {"measurement": "Nonresponders (number)", "setting": "[1]; SULT4A1-1 Positive", "value": 1}, {"measurement": "Responders (number)", "setting": "[1]; SULT4A1-1 Positive", "value": 0}, {"measurement": "Difference between survival (no hospitalization) rates of SULT4A1-1 negative and SULT4A1-1 positive patients", "setting": "CATIE patients", "value": "not statistically significant"}, {"measurement": "Mean Difference in Total PANSS Score, Olanzapine vs. labelled drug", "setting": "[2]", "value": "−1.9"}, {"measurement": "≦−20% (number of individuals; responders)", "setting": "[3]; SULT4A1-1 Negative", "value": 7}, {"measurement": "≧−20% (number of individuals; non-responders)", "setting": "[3]; SULT4A1-1 Negative", "value": 34}, {"measurement": "≦−20% (number of individuals; responders)", "setting": "[3]; SULT4A1-1 Positive", "value": 3}, {"measurement": "≧−20% (number of individuals; non-responders)", "setting": "[3]; SULT4A1-1 Positive", "value": 2}, {"measurement": "Responders", "setting": "[3]; SULT4A1-1 Positive, change in total PANSS ≦−20%", "value": 60, "unit": "%"}, {"measurement": "HOSP (number of subjects hospitalized)", "setting": "CATIE Caucasian subjects; SULT4A1-1 Positive", "value": 4}, {"measurement": "HOSP (rate of hospitalization)", "setting": "CATIE Caucasian subjects; SULT4A1-1 Positive", "value": "(11.1%)"}, {"measurement": "HOSP (number of subjects hospitalized)", "setting": "CATIE Caucasian subjects; SULT4A1-1 negative", "value": 16}, {"measurement": "HOSP (rate of hospitalization)", "setting": "CATIE Caucasian subjects; SULT4A1-1 negative", "value": "(13%)"}, {"measurement": "HOSP (number of subjects hospitalized)", "setting": "CATIE Caucasian subjects; Unsegmented", "value": 20}, {"measurement": "HOSP (rate of hospitalization)", "setting": "CATIE Caucasian subjects; Unsegmented", "value": "(12.6%)"}, {"measurement": "Effect Size vs. Placebo", "setting": "[4]", "value": "−0.59"}, {"measurement": "Effect Size vs. FGA", "setting": "[5]", "value": "−0.25"}, {"measurement": "Time to discontinuation, mean time in months", "setting": "[6]; SULT4A1-1 Negative", "value": 11.3, "unit": "Months"}, {"measurement": "Time to discontinuation, mean time in months", "setting": "[6]; SULT4A1-1 Positive", "value": "8.0*** Months"}]}, {"smiles": "O=C1Cc2cc(CCN3CCN(c4nsc5ccccc45)CC3)c(Cl)cc2N1", "note": "[Ziprasidone]", "values": [{"measurement": "Difference between survival (no hospitalization) rates of SULT4A1-1 negative and SULT4A1-1 positive patients", "setting": "CATIE patients", "value": "not statistically significant"}, {"measurement": "Mean Difference in Total PANSS Score, Olanzapine vs. labelled drug", "setting": "[2]", "value": "−8.3"}, {"measurement": "≦−20% (number of individuals; responders)", "setting": "[3]; SULT4A1-1 Negative", "value": 4}, {"measurement": "≧−20% (number of individuals; non-responders)", "setting": "[3]; SULT4A1-1 Negative", "value": 22}, {"measurement": "≦−20% (number of individuals; responders)", "setting": "[3]; SULT4A1-1 Positive", "value": 0}, {"measurement": "≧−20% (number of individuals; non-responders)", "setting": "[3]; SULT4A1-1 Positive", "value": 3}, {"measurement": "HOSP (number of subjects hospitalized)", "setting": "CATIE Caucasian subjects; SULT4A1-1 Positive", "value": 2}, {"measurement": "HOSP (number of subjects hospitalized)", "setting": "CATIE Caucasian subjects; SULT4A1-1 negative", "value": 11}, {"measurement": "HOSP (number of subjects hospitalized)", "setting": "CATIE Caucasian subjects; Unsegmented", "value": 13}, {"measurement": "Effect Size vs. Placebo", "setting": "[4]", "value": "−0.48"}, {"measurement": "Effect Size vs. FGA", "setting": "[5]", "value": "−0.04"}, {"measurement": "Mean Difference in Total PANSS Score, Olanzapine vs. labelled drug", "setting": "[7]; CATIE SULT4A1-1 −", "value": "−2.1"}, {"measurement": "Mean Difference in Total PANSS Score, Olanzapine vs. labelled drug", "setting": "[7]; CATIE unsegmented", "value": "−4.9"}, {"measurement": "≦−20% (number of individuals with this percent change in total PANSS; responders)", "setting": "[7]; SULT4A1-1 Negative", "value": 6}, {"measurement": "≧−20% (number of individuals with this percent change in total PANSS; non-responders)", "setting": "[7]; SULT4A1-1 Negative", "value": 32}, {"measurement": "≦−20% (number of individuals with this percent change in total PANSS; responders)", "setting": "[7]; SULT4A1-1 Positive", "value": 3}, {"measurement": "≧−20% (number of individuals with this percent change in total PANSS; non-responders)", "setting": "[7]; SULT4A1-1 Positive", "value": 7}, {"measurement": "Non Responder (number)", "setting": "[7]; [8]", "value": 7}, {"measurement": "Responder (number)", "setting": "[7]; [8]", "value": 3}, {"measurement": "Time to discontinuation, mean time in months", "setting": "[6]; SULT4A1-1 Negative", "value": "8.2*** Months"}]}]}
